Article PMC7617971, “OmpA Specifically Modulates the Activity of Enzymes that Reside in the Crowded Bacterial Outer Membrane” (Journal of molecular biology, 2025)

Experiments:
PagP = target: T1, PagP (Escherichia coli, UniProt P37001); test: colorimetric release of 4-nitrophenol, A410; assay type: biochemical; conditions: DMPG proteoliposomes, pH 8.5, 2 M urea, room temperature; substrate delivered with methyl-beta-cyclodextrin
T1 sequence (P37001 26-186): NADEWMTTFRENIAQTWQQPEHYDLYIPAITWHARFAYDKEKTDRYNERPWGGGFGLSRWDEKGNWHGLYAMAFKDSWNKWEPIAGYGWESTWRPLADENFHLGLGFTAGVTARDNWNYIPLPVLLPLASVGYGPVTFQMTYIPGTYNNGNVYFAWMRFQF

OmpLA = target: T2, OmpLA (Escherichia coli, UniProt P0A921); test: free fatty acid release by ANS displacement from BSA (fluorescence); assay type: biochemical; conditions: DMPG proteoliposomes, CaCl2 added to start, 30 °C
T2 construct: gene pldA; functional dimer, needs divalent cation
T2 sequence (P0A921 21-289): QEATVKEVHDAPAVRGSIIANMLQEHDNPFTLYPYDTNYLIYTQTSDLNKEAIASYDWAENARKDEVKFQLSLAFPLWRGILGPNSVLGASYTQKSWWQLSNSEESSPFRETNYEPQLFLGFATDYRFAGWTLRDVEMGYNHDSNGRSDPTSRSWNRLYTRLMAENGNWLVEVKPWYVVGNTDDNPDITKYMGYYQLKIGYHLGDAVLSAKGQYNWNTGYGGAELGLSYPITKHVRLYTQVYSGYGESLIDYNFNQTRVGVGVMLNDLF

SMILES	colorimetric release of 4-nitrophenol, A410 (PagP)	free fatty acid release by ANS displacement from BSA (fluorescence) (OmpLA)
CCCCCCCCCCCCCCCC(=O)Oc1ccc([N+](=O)[O-])cc1 [palmitate-4-nitrophenol]	MβCD facilitates the rapid delivery of the pNP PagP substrate into liposome bilayers	
CCCCCCCCCCCCCC(=O)OC[C@H](COP(=O)(O)OCC(O)CO)OC(=O)CCCCCCCCCCCCC (some centres unmarked) [DMPG]		the phospholipase activity of OmpLA was measured in DMPG proteoliposomes
